Patent US12583825B2, “Benzo[h]quinazolin-4-amine and thieno[3,2-h]quinazolin-4-amine derivatives for the treatment of cancer” (Redona Therapeutics, Inc., priority 2020, dated 2026)

Tests used:
[1] = test system: phospho-SRSF6 levels in MDA-MB-468 cells; experiment: Inhibition of phospho-SRSF6 levels in MDA-MB-468 cells (Western blot); type: cell-based; conditions: Homo sapiens, 100 nM, 2 hours, normalized by GAPDH, read-out: % Intensity of p-SRSF6 signal at 100 nM compared to DMSO control
Experimental: FIG. 1: FIG. 1 provides a representative Western blot showing reduction of phosphorylated-SRSF6 (P-SRSF6) in MDA-MB 468 cells by compounds of the invention. GAPDH was probed for by Western blotting to control for equal protein loading and for normalization of samples. The numbers below the blots show percent intensity of P-SRSF6 signal at 100 nM compared to DMSO control.
Assessment of Inhibition of Phospho-SRSF6 Levels in MDA-MB-468 Cells
MDA-MB-468 cells (ATCC, HTB-132) were cultured in DMEM (BioConcept cat. no. 1-26F03) supplemented with 10% FBS (Sigma cat. no. F9665), 1% Na-pyruvate (Sigma cat. no. S8636), 1% Penicillin-Streptomycin (BioConcept cat. no. 4-01F00-H). When cells reached a density of 70% in 6-well plates (TPP cat. no. 92006), they were treated either with the test compound vehicle DMSO, or with experimental compounds at a final concentration of 100 nM for 2 hours. Thereafter, the culture medium was removed and cells were collected by scraping in Lysis Buffer (20 mM Tris HCl pH7.5, 150 mM NaCl, 1 mM EGTA, 1 mM EDTA, 1% Triton and 1% NP-40) containing protease and phosphatase inhibitors (Halt™ Protease&Phosphatase inhibitor cocktail 100× ThermoScientific cat. no. 1861281) and 1 mM PMSF (Fluka cat. no. 93482). Cleared lysates were stored in Eppendorf tubes at −80° C. until use, and protein concentration in lysates was determined using Pierce 660 nm Protein Assay Reagent (ThermoScientific cat. no. 22660). 20 μg proteins were diluted in 4× Laemmli buffer (Biorad cat. no. 161-0747) containing 10% beta-mercaptoethanol, separated by SDS-PAGE using 10% gels, and then transferred to PVDF membranes (Trans Blot Turbo Transfer Pack BioRad cat. no. 1704156) by Trans-Blot® Turbo™ System semidry blotting methodology (BioRad). Primary antibodies were incubated in TBS-0.1% Tween-20 buffer containing 3% BSA Bovine Albumin Fr.V (Millipore cat. no. 81-053-3) overnight at 4° C. The following primary antibodies were used: Mouse anti-phosphoepitope SR proteins clone 1H4 (Millipore cat. no. MABE50) diluted 1:5000, and rabbit anti-GAPDH clone 14C10 (Cell Signaling cat. no. 2118S) to control for equal protein loading, diluted 1:2000. HRP-conjugated secondary antibodies were incubated one hour at room temperature diluted 1:5000 in TBS-0.1% Tween-20 buffer containing 5% nonfat-dried bovine milk (Sigma cat. no. M7409). The following secondary antibodies were used: Goat anti-mouse-HRP (Jackson cat. no. 115-035-146) and goat anti-rabbit-HRP (Jackson cat. no. 111-035-144). Membranes were incubated with ECL Prime Western Blot Detection Reagent (Amersham cat. no. RPN2236) to detect specific signals using Fusion SOLO S device (Vilber Lourmat). Pixel intensity of the phopsho-SRSF6 (MW 55 kDa in reference to markers) and GAPDH (MW 37 kDa) signals in the Western blots were determined using Evolution-Capt image analysis software (v17.01, Vilber Lourmat). DMSO control was used to set the phospho-SRSF6 signal at baseline, phospho-SRSF6 signals for each sample were normalized by the respective GAPDH signals and percent intensity of P-SRSF6 signal at 100 nM compound compared to DMSO control was calculated (see FIG. 1).

recombinant human CLK3 = target: T1, recombinant human CLK3 (Homo sapiens, UniProt P49761); experiment: CLK3 kinase assay (LANCE Ultra); type: biochemical; conditions: 0.5 nM CLK3, 300 μM ATP, 3 hours at 30° C.
T1 construct: purchased Thermo Fisher Scientific PV3826
T1 sequence (P49761 whole entry): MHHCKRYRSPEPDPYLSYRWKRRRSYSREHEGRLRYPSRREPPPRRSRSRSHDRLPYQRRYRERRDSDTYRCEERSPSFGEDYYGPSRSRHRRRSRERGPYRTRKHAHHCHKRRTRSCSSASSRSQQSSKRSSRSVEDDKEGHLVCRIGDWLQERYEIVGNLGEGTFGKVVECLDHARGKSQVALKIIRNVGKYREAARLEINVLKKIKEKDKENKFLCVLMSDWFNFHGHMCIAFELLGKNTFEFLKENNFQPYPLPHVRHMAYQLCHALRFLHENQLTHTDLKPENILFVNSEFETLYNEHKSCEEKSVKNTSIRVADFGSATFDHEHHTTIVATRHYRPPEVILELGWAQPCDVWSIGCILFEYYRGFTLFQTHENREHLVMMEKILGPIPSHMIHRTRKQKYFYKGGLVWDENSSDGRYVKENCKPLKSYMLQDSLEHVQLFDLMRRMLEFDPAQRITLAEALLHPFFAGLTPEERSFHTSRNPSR
Outline: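 TR-FRET (LANCE Ultra) read-out of phospho-CREBtide after a 3 h, 30 °C reaction containing 300 μM ATP, 50 nM ULight-CREBtide and 0.5 nM recombinant human CLK3, compounds in 1% DMSO.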

MDA-MB-231 cells = experiment: MDA-MB-231 proliferation assay; type: cell-based; conditions: Homo sapiens, 72 hours, YO-PRO-1 readout
Outline: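 Cells seeded at 750/well in DMEM with 10% FBS, treated 72 h at 37 °C, 0.5% DMSO final. Cell number read by YO-PRO-1 fluorescence (485/530 nm), normalised to DMSO (100%) and time-of-addition cells (0%); 4-parameter logistic fit with maximum fixed at 100%.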

| SMILES | activity at 0.1 µM [1] | IC50 (recombinant human CLK3) | GI50 (MDA-MB-231 cells) |
| --- | --- | --- | --- |
| CO/N=C1\c2cc(O[C@H]3CC[C@H](N)CC3)ccc2-c2ncnc(N)c2C1(C)C [Example 1, (6Z)-8-(trans-4-aminocyclohexoxy)-6-methoxyimino-5,5-dimethyl-benzo[h]quinazolin-4-amine] | 19% | 9.1 nM | 407 nM |
| C=C(c1ccc2c(c1)/C(=N\OC)C(C)(C)c1c(N)ncnc1-2)[C@H]1CC[C@H](N)CC1 [Example 4, (6Z)-8-[1-(trans-4-aminocyclohexyl)vinyl]-6-methoxyimino-5,5-dimethyl-benzo[h]quinazolin-4-amine] | 32% | 2.1 nM | 271 nM |
| COc1ccc2c(c1)/C(=N\OCCCC#N)C(C)(C)c1c(N)ncnc1-2 [Example 6, 4-[(Z)-(4-amino-8-methoxy-5,5-dimethyl-benzo[h]quinazolin-6-ylidene)amino]oxybutanenitrile] | 41% | 32.1 nM | > 2000 nM |
| COc1ccc2c(c1)/C(=N\OC[C@@H]1CNC(=O)O1)C(C)(C)c1c(N)ncnc1-2 [Example 13, (5S)-5-[[(Z)-(4-amino-8-methoxy-5,5-dimethyl-benzo[h]quinazolin-6-ylidene)amino]oxymethyl]oxazolidin-2-one] | 28% | 4.3 nM | 1200 nM |
| CC1(C)/C(=N/OCCO)c2cc(O[C@H]3CC[C@H](N)CC3)ccc2-c2ncnc(N)c21 [Example 19, 2-[(Z)-[4-amino-8-(trans-4-aminocyclohexoxy)-5,5-dimethyl-benzo[h]quinazolin-6-ylidene]amino]oxyethanol] | 25% | 20.2 nM | 445 nM |
| C#CCO/N=C1\c2cc(O[C@H]3CC[C@H](N)CC3)ccc2-c2ncnc(N)c2C1(C)C [Example 21, (6Z)-8-(trans-4-aminocyclohexoxy)-5,5-dimethyl-6-prop-2-ynoxyimino-benzo[h]quinazolin-4-amine] | 12% | 27.2 nM | 569 nM |
| CC1(C)/C(=N/OCCCC#N)c2cc(O[C@H]3CC[C@H](N)CC3)ccc2-c2ncnc(N)c21 [Example 27, 4-[(Z)-[4-amino-8-(trans-4-aminocyclohexoxy)-5,5-dimethyl-benzo[h]quinazolin-6-ylidene]amino]oxybutanenitrile] | 26% | 16.1 nM | 269 nM |
| CC1(C)/C(=N/OC[C@@H]2CNC(=O)O2)c2cc(O[C@H]3CC[C@H](N)CC3)ccc2-c2ncnc(N)c21 [Example 38, (5S)-5-[[(Z)-[4-amino-8-(trans-4-aminocyclohexoxy)-5,5-dimethyl-benzo[h]quinazolin-6-ylidene]amino]oxymethyl]oxazolidin-2-one] | 48% | 4.16 nM | > 2000 nM |
| CN1C[C@@H](CO/N=C2\c3cc(O[C@H]4CC[C@@H](N)CC4)ccc3-c3ncnc(N)c3C2(C)C)OC1=O [Example 88, (5S)-5-[[(Z)-[4-amino-8-(cis-4-aminocyclohexoxy)-5,5-dimethyl-benzo[h]quinazolin-6-ylidene]amino]oxymethyl]-3-methyl-oxazolidin-2-one] | 21% | 8.8 nM | – |
| CC(=O)c1ccc2c(c1)/C(=N\OC[C@@H]1CNC(=O)O1)C(C)(C)c1c(N)ncnc1-2 [Example 98, (5S)-5-[[(Z)-(8-acetyl-4-amino-5,5-dimethyl-benzo[h]quinazolin-6-ylidene)amino]oxymethyl]oxazolidin-2-one] | – | 26 nM | > 2000 nM |
| COCCO/N=C1\c2cc(O[C@H]3CC[C@@H](N)CC3)ccc2-c2ncnc(N)c2C12CCCC2 [Example 100, (6Z)-8-(cis-4-aminocyclohexoxy)-6-(2-methoxyethoxyimino)spiro[benzo[h]quinazoline-5,1′-cyclopentane]-4-amine] | – | 3.7 nM | 10.5 nM |
| COCCO/N=C1\c2cc(O[C@H]3CC[C@@](C)(N)CC3)ccc2-c2ncnc(N)c2C1(C)C [Example 103, (6Z)-8-(cis-4-amino-4-methyl-cyclohexoxy)-6-(2-methoxyethoxyimino)-5,5-dimethyl-benzo[h]quinazoline-4-amine] | – | 28.3 nM | 184 nM |
| Nc1ncnc2c1C1(CCCC1)/C(=N/O)c1cc(O[C@H]3CC[C@@H](N)CC3)ccc1-2 [Example 104, 4-amino-8-(cis-4-minocyclohexoxy)spiro[benzo[h]quinazoline-5,1′-cyclopentane]-6-one oxime] | – | 10.4 nM | 41.3 nM |
| CC1(C)/C(=N/OCCc2ccccc2)c2cc(O[C@H]3CC[C@@H](N)CC3)ccc2-c2ncnc(N)c21 [Example 106, (6Z)-8-(cis-4-aminocyclohexoxy)-5,5-dimethyl-6-(2-phenylethoxyimino)benzo[h]quinazoline-4-amine] | – | 23.4 nM | 307 nM |
| CCOCCO/N=C1\c2cc(O[C@H]3CC[C@@H](N)CC3)ccc2-c2ncnc(N)c2C1(C)C [Example 109, (6Z)-8-(cis-4-aminocyclohexoxy)-6-(2-ethoxyethoxyimino)-5,5-dimethyl-benzo[h]quinazoline-4-amine] | 21% | – | 156 nM |
| CC1(C)/C(=N/OCCCS(C)(=O)=O)c2cc(O[C@H]3CC[C@@H](N)CC3)ccc2-c2ncnc(N)c21 [Example 110, (6Z)-8-(cis-4-aminocyclohexoxy)-5,5-dimethyl-6-(3-methylsulfonylpropoxyimino)benzo[h]quinazoline-4-amine] | – | 31.8 nM | > 2000 nM |
| CC(C)(C#N)CCO/N=C1\c2cc(O[C@H]3CC[C@@H](N)CC3)ccc2-c2ncnc(N)c2C1(C)C [Example 111, 4-[(Z)-[4-amino-8-(cis-4-aminocyclohexoxy)-5,5-dimethyl-benzo[h]quinazolin-6-ylidene]amino]oxy-2,2-dimethyl-butanenitrile] | 16% | – | 106 nM |
| CC1(C)/C(=N/OCCOCC(F)(F)F)c2cc(O[C@H]3CC[C@@H](N)CC3)ccc2-c2ncnc(N)c21 [Example 112, (6Z)-8-(cis-4-aminocyclohexoxy)-5,5-dimethyl-6-[2-(2,2,2-trifluoroethoxy)ethoxyimino]benzo[h]quinazolin-4-amine] | – | 8.8 nM | 66.2 nM |
| CC1(C)/C(=N/OCCCCF)c2cc(O[C@H]3CC[C@@H](N)CC3)ccc2-c2ncnc(N)c21 [Example 113, (6Z)-8-(cis-4-aminocyclohexoxy)-6-(4-fluorobutoxyimino)-5,5-dimethyl-benzo[h]quinazolin-4-amine] | – | 21.2 nM | 167 nM |
| CC1(C)/C(=N/OCCCC(F)(F)F)c2cc(O[C@H]3CC[C@@H](N)CC3)ccc2-c2ncnc(N)c21 [Example 114, (6Z)-8-(cis-4-aminocyclohexoxy)-5,5-dimethyl-6-(4,4,4-trifluorobutoxyimino)benzo[h]quinazolin-4-amine] | – | 48.9 nM | 373 nM |
| CC1(C)/C(=N/OCCC(F)(F)F)c2cc(O[C@H]3CC[C@@H](N)CC3)ccc2-c2ncnc(N)c21 [Example 116, (6Z)-8-(cis-4-aminocyclohexoxy)-5,5-dimethyl-6-(3,3,3-trifluoropropoxyimino)benzo[h]quinazoline-4-amine] | – | 28.9 nM | 71.7 nM |
